This data set can be described thus: gradient 5% acetonitrile 3 min, to 50% in 2 min, to 85% in 15 min, held 3 min, 100 µL/min. The conditions noted are these: column: Zorbax Extend-C18 2.1 x 50 mm; eluents: water / acetonitrile, 0.1% formic acid. The essentials: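 Retention times of pure standards were taken from adduct peaks that were selected by computer and manually inspected. Over 3 months, mixtures of ~100 molecules were run by HPLC–quadrupole time-of-flight mass spectrometry in positive and negative ionization mode. The Zorbax Extend-C18 column (2.1 × 50 mm, 1.8 μm) ran at 100 μL/min in water and acetonitrile, each containing 0.1% formic acid, with 40 μL dead volume and 900 μL dwell volume.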
Compound `CCCCN(C)C(=O)Cn1c(CN(C)C(=O)c2ccco2)nc2ccccc21` had an RP-LC retention time of 655 s. Next, `Cc1cc(C)c2c(N(C)C)nc(C(=O)NC(C)c3ccccn3)nc2n1` (stereo not drawn): 559 s; `Cc1cccc(-c2nnc(-c3cc(S(=O)(=O)N(C)C)ccc3Cl)o2)c1`: 1050 s. Next, `CCCN(CC1CCOC1)C(=O)Nc1ccc(OC)c(F)c1` (stereo not drawn): 777 s. Next, `CCN(CC)c1nc2cc(C(=O)OC)ccc2c(=O)n1-c1cccc(F)c1`: 1120 s; `CCCNC(=O)CCc1nc2ccccc2n(CC(=O)NCc2ccccc2)c1=O`: 1270 s; `CCOC(=O)c1ccc(NC(=O)CN2N=NC3C(=O)N(c4ccc(F)cc4)C(=O)C32)cc1` (stereo not drawn): 812 s. `O=C(CS(=O)Cc1cnn(-c2ccccc2)c1-n1cccc1)NCc1cccc(F)c1` (stereo not drawn) registered an RP-LC retention time of 838 s. Next, `CCCCCn1c(=O)c2ccccc2n(Cc2nc(-c3ccc(Cl)c(F)c3)no2)c1=O`: 659 s. The figure for `CC(Oc1cccc(Cl)c1)C(=O)Nc1ccc2c(c1)Sc1ncccc1C(=O)N2C` (stereo not drawn) is 911 s; for `O=C1CCCC1C(=O)Nc1ccc2ccccc2c1` (stereo not drawn) it is 884 s. `O=C(NCc1ccc2c(c1)CCCN2C(=O)C1CCC1)c1ccc(C(F)(F)F)cc1` came in with an RP-LC retention time of 990 s. The figure for `O=S(=O)(Nc1cccn2ncnc12)c1ccc(F)cc1` is 694 s. The figure for `Cc1noc(C)c1S(=O)(=O)N1CCC2(CC1)CC(OCc1ccccc1)CCO2` (stereo not drawn) is 1070 s; for `Cc1cc(NS(=O)(=O)c2cn(CC(C)C)c3ncccc23)ccc1F` it is 989 s; for `COc1ccc(N2CC(c3noc(-c4ccc(F)cc4)n3)CC2=O)cc1OC` (stereo not drawn) it is 856 s. Next, `Cc1sc2ccn(C)c(=O)c2c1C(=O)N1CCN(c2ccccn2)CC1`: 564 s. Regarding `COC1CCOC2(CCN(C(=O)c3sccc3C)CC2)C1` (stereo not drawn), the RP-LC retention time amounted to 732 s. Next, `CCCn1c(=O)c(C)nc2cc(-c3noc(-c4cc(OC)c(OC)c(OC)c4)n3)ccc21`: 1110 s; `COc1ccc(C(=O)N2CCc3ccc(CNC(=O)NCC4CCCO4)cc32)cc1` (stereo not drawn): 712 s. Consider `CC(=O)Nc1ccc(-c2nnc3n2CCCC3)cc1`, for which the RP-LC retention time was 563 s. Compound `COc1ccc(OC)c(NC(=O)CCc2c(C)nn(-c3cc(N4CCCC4)ncn3)c2C)c1` gave an RP-LC retention time of 827 s. In turn, `CN(CCCNC(=O)C1CCCN(c2nnc(-n3cccc3)s2)C1)C1CCCCC1` (stereo not drawn) yielded an RP-LC retention time of 653 s.

`CCc1nnc2c(=O)n(CC(=O)NC(C)c3ccccc3)c3cccnc3n12` (stereo not drawn) returned an RP-LC retention time of 714 s. `O=c1c2c(CO)c(-c3ccccc3)nn2ccn1Cc1ccc(Br)cc1`: the RP-LC retention time is 1010 s. The figure for `Cc1cccc(-c2ncccc2CNS(=O)(=O)c2ccccc2Cl)c1` is 732 s; for `CC(=O)NCCc1c(Cc2ccccc2)[nH]c2ccccc12` it is 876 s. The figure for `Cn1cc(S(=O)(=O)N2CCC(C(=O)NCc3cccs3)CC2)cc1C(=O)N1CCCC1` is 706 s. The figure for `Cc1ccc(CN2CCn3nnc(CCC(=O)N4CCCC4)c3C2)s1` is 651 s; for `Clc1ccc(-c2ccnc3nc(-c4ccccc4)nn23)cc1` it is 971 s. `CCn1cc(C(=O)NCc2ccc(C)o2)c2cccnc21` gave an RP-LC retention time of 742 s. Next, `CCc1cccc(C)c1Nc1c(-c2cccc(O)c2)nc2cnccn12`: 750 s.

In turn, `CCn1c(=O)n(CC(=O)NCCC2=CCCCC2)c(=O)c2cnc(-c3ccccc3)nc21` had an RP-LC retention time of 1130 s.

(Values after the METLIN SMRT retention time set (Domingo-Almenara et al. 2019).)
